RP-LC retention time data for 59 molecules are collected here from the METLIN SMRT retention time set (Domingo-Almenara et al. 2019).

This data set in a line: gradient 5% acetonitrile 3 min, to 50% in 2 min, to 85% in 15 min, held 3 min, 100 µL/min. The following applies: column: Zorbax Extend-C18 2.1 x 50 mm; eluents: water / acetonitrile, 0.1% formic acid. The gist of the method: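 Over 3 months, pure standards in mixtures of ~100 molecules were run by HPLC coupled to a quadrupole time-of-flight mass spectrometer in positive and negative ionization mode. The column was a Zorbax Extend-C18 (2.1 × 50 mm, 1.8 μm) at 100 μL/min, eluted with water and acetonitrile each holding 0.1% formic acid, with 40 μL dead and 900 μL dwell volumes. Retention time was determined from adduct peaks chosen by software and checked manually.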
Molecule `COc1cccc(C2CC(c3ccc(Cl)cc3)=NC3(CCN(C(C)=O)CC3)N2)c1O` (centres undefined) had an RP-LC retention time of 686 s.

For `COc1ccc(S(=O)(=O)NC2CCN(C(=O)Cc3c[nH]c4ccccc34)CC2)cc1`, the RP-LC retention time came to 766 s.

Molecule `Cc1ccc(CNC(=O)C2(C)CN(S(=O)(=O)c3ccccc3)CC(=O)N2c2cccc(F)c2)cc1` (centres undefined) displayed an RP-LC retention time of 962 s.

As to `NS(=O)(=O)c1ccc(NC(=O)CN2C(=O)S/C(=C\C=C\c3ccccc3)C2=O)cc1`, the RP-LC retention time was found to be 808 s.

In turn, `CCCN1C(=O)COc2ccc(-c3noc(/C=C/c4ccccc4)n3)cc21` displayed an RP-LC retention time of 1250 s.

The molecule `O=C(Nc1cccc(Br)c1)C1CCCN(c2ncc(-c3ccc(F)cc3)cn2)C1` (centres undefined) came in with an RP-LC retention time of 1250 s.

Turning to `C#CCOCC1CCN(S(=O)(=O)c2ccccc2)CC1`, the RP-LC retention time was 866 s.

With `COCCn1cc(CCNC(=O)Nc2ccc(F)c(Cl)c2)c2cccnc21`, the RP-LC retention time came to 783 s.

In turn, `Cc1ccc(CNC(=O)CCc2conc2-c2ccccc2)o1` yielded an RP-LC retention time of 865 s.

The molecule `O=C1C(c2ccncc2)N(Cc2ccco2)C(=O)CN1c1ccccc1` (centres undefined) returned an RP-LC retention time of 628 s.

For `CC(C)NC(=O)NCC1Cn2cccc2C(=O)N1Cc1ccccc1` (centres undefined), the RP-LC retention time is 696 s.

Turning to `CC(C)n1c(=O)oc2cc(-c3noc(-c4cccc5[nH]ccc45)n3)ccc21`, the RP-LC retention time came out at 1080 s.

Molecule `NC(=O)Cc1ccc(NS(=O)(=O)c2cccs2)cc1` yielded an RP-LC retention time of 604 s.

`COc1ccc(-c2nc3cc(C)ccn3c2NC(=O)C(C)(C)Oc2ccc(Cl)cc2)cc1` returned an RP-LC retention time of 828 s.

`Cc1ccc2c(Nc3ccc(F)c(F)c3)c(C(=O)N3CCCC3)cnc2n1` returned an RP-LC retention time of 680 s.

Turning to `COc1ccccc1C(=O)Nc1cccn2nc(C(C)C)nc12`, the RP-LC retention time came out at 1020 s.

For `Cc1ccc(C)c(CN2CCC(N3CCN(Cc4nc(C)no4)C3=O)C2)c1` (centres undefined), the RP-LC retention time is 630 s.

As for `O=C(C1=NN(Cc2ccc(F)cc2)c2ccccc2S1(=O)=O)N1CCOCC1`, the RP-LC retention time came out at 761 s.

`O=C(NCc1cccnc1)c1ccc2ccnc(N3CCN(C(=O)c4ccco4)CC3)c2c1` came in with an RP-LC retention time of 563 s.

`CCOC(=O)c1nc(NCCc2ccc(OCC)c(OCC)c2)c2ccccc2n1` had an RP-LC retention time of 801 s.

Consider `C=CCN1CCN(c2nc3cc(C(=O)OC)ccc3c(=O)n2-c2ccc(Cl)cc2)CC1`, for which the RP-LC retention time worked out at 681 s.

`COc1ccc2c(c1)C1(CCN(C(=O)NCCC(C)C)C1)C(=O)N2` (centres undefined) gave an RP-LC retention time of 716 s.

`O=c1c2nc(-c3ccc(Cl)cc3)cn2ccn1-c1ccc(F)c(F)c1` returned an RP-LC retention time of 891 s.

Molecule `NC[C@@H]1O[C@H](C23CC4CC(CC(C4)C2)C3)Cc2c1ccc(O)c2O` returned an RP-LC retention time of 787 s.

In turn, `CN1C(=O)c2cc(S(=O)(=O)Nc3cccc(Cl)c3)ccc2Oc2cccnc21` registered an RP-LC retention time of 952 s.

Turning to `CCc1nc(-c2csc(S(=O)(=O)N3CCC(C(=O)NCc4ccc(C)cc4)CC3)c2)no1`, the RP-LC retention time was 662 s.

On to `O=C(Cc1ccsc1)N1CCCn2cc(-c3ccccc3F)nc21`, for which the RP-LC retention time came out at 784 s.

For `COc1ccc(OC)c(CNC(=O)C2CCCN(c3ccc(-c4ccccc4)nn3)C2)c1` (centres undefined), the RP-LC retention time worked out at 704 s.

Consider `Cc1cc2c(cc1S(=O)(=O)N1CCCC1C(=O)N(Cc1ccccc1)C(C)C)OCC(=O)N2` (centres undefined), for which the RP-LC retention time was found to be 837 s.

The molecule `COc1ccc(C(=O)N2CCC(c3noc(-c4ccncc4)n3)C2)cn1` (centres undefined) gave an RP-LC retention time of 673 s.

The molecule `CCCCNC(=O)C1CC(=O)N(CCc2c[nH]c3ccc(Cl)cc23)C1` (centres undefined) displayed an RP-LC retention time of 761 s.

In turn, `Cc1ccccc1NC(=O)Cn1nc2c(Oc3cccc(F)c3)nccn2c1=O` showed an RP-LC retention time of 846 s.

On to `CCCNC(=O)C1CCN(c2ccc(SCC(=O)Nc3cc(OC)cc(OC)c3)nn2)CC1`, for which the RP-LC retention time is 653 s.

With `Cc1oc(-c2[nH]ncc2C(=O)N2CCCC2)cc1S(=O)(=O)NCCC(C)C`, the RP-LC retention time was determined as 736 s.

In the case of `Cc1ccc(S(=O)(=O)N2CCc3nc(-c4ccccc4)ncc3C2)cc1Cl`, the RP-LC retention time worked out at 1240 s.

Regarding `CCOc1ccc(-c2nc(-c3ccc4c(c3)N(CC)C(=O)CO4)no2)cc1`, the RP-LC retention time was determined as 1240 s.

`COC(=O)/C(=C1/OC(=O)C(c2ccccc2)=C1O)c1ccccc1` gave an RP-LC retention time of 1130 s.

Molecule `Cc1cccc(NC(=O)C2CCCN(c3ncnc4onc(-c5ccc(F)cc5)c34)C2)n1` (centres undefined) displayed an RP-LC retention time of 849 s.

Molecule `Cc1ccc(-c2noc(Cc3nc(-c4ccc5c(c4)OCO5)cs3)n2)cc1` yielded an RP-LC retention time of 1220 s.

With `O=C(Nc1cnn(-c2ncc(N3CCCCC3)cn2)c1)C1CCCC1`, the RP-LC retention time came to 807 s.

`CCC(C)NS(=O)(=O)c1cc(-c2nnc(-c3ccccc3)o2)ccc1OC` (centres undefined) yielded an RP-LC retention time of 955 s.

The molecule `O=c1c(NC2CCCC2)nc2ccncc2n1Cc1ccccc1` yielded an RP-LC retention time of 682 s.

`Cc1ccc(S(=O)(=O)N2CCC(n3cnnc3C)CC2)cc1C` gave an RP-LC retention time of 704 s.

`CCc1ccc(-c2nc3ccc(C)cn3c2CN2CCC(F)(COC)CC2)cc1` showed an RP-LC retention time of 642 s.

Consider `Cc1cccc(CNC(=O)C2CCCN(c3nnc(C)c4c(C)n(-c5ccccc5)nc34)C2)c1` (centres undefined), for which the RP-LC retention time was 745 s.

Consider `CCOC(=O)c1c(NCCC(C)C)c2cccc(Cl)c2[nH]c1=O`, for which the RP-LC retention time is 890 s.

`Cc1oc(-c2[nH]ncc2C(=O)N2CCOCC2)cc1S(=O)(=O)N1CCCC1` returned an RP-LC retention time of 616 s.

Take `CCCn1c(=O)c(C)nc2cc(-c3noc(-c4sccc4C)n3)ccc21`: the RP-LC retention time is 1240 s.

`CCCN1C(=O)COc2ccc(-c3noc(Cc4cc(OC)cc(OC)c4)n3)cc21`: the RP-LC retention time turned out to be 1080 s.

As for `CCOc1ccc(CN2C(=O)C3(CCOCC3)CC2c2nnnn2C(C)(C)C)cc1OC` (centres undefined), the RP-LC retention time worked out at 754 s.

`O=C(NC1CCCCCC1)C1CCCN(C(=O)c2cccc(C(F)(F)F)c2)C1` (centres undefined) returned an RP-LC retention time of 948 s.

In turn, `O=C(CCc1nc2ccccc2s1)NC1CCN(C(=O)N2C[C@H]3C[C@H](C2)[C@H]2CCCC(=O)N2C3)CC1` yielded an RP-LC retention time of 661 s.

The molecule `CN(C)[C@@H]1CN(C(=O)c2cccc(Cl)c2)C[C@H]1CO` came in with an RP-LC retention time of 559 s.

Molecule `Cc1nc2cc(N3CC(C(=O)N4CCN(c5ccccc5F)CC4)CC3=O)ccc2o1` (centres undefined) displayed an RP-LC retention time of 788 s.

`CCC(C)Oc1nc2c(c(=O)n(C)c(=O)n2C)n1C` (centres undefined): the RP-LC retention time came to 865 s.

For `CCc1nc2cc(-c3noc(COc4ccccc4C)n3)ccc2o1`, the RP-LC retention time is 1270 s.

In turn, `Cc1ccc(CNC(=O)C(=O)NCCO)cc1` came in with an RP-LC retention time of 600 s.

As to `COc1ccc(OC)c(CCNc2nc(-c3ccc(OC)c(OC)c3)no2)c1`, the RP-LC retention time amounted to 918 s.

On to `O=C1NCCOc2ccc(NS(=O)(=O)c3ccc(F)c(Cl)c3)cc21`, for which the RP-LC retention time worked out at 685 s.
